Read-outs that look alike come from different tables or passages of the source.
What was measured:
[1] = tested on: WI38 cells; test: Triglyceride uptake assay ([3H]triolein) in WI38 cells; assay type: cell-based, human
Procedure: The human embryonic cell line WI38 was obtained from American Type Culture Collection (Rockville, Md.). Cells were grown in MEM plus 10% FBS at 37° C. in six-well plates, four-well slides, and 60- and 100-mm culture dishes as needed.
The method used to quantitate triglyceride uptake by fetal rat lung fibroblasts has been described previously (Torday et al. (1995) Biochim Biophys Acta 1254: 198-206). Briefly, culture medium was replaced with DMEM containing 20% adult rat serum mixed with [3H]triolein (5 μCi/ml). The cells were incubated at 37° C. in 5% CO2+balance air for 4 h. At the termination of the incubation, the medium was decanted, the cells were rinsed twice with 1 ml of ice-cold MEM, and the cells were removed from the culture plate after a 5- to 10-min incubation with 2 ml of a 0.05% trypsin solution. An aliquot of the cell suspension was taken for protein assay (Bradford (1976) Anal Biochem 72: 248-254), and the remaining cell suspension was extracted for neutral lipid content.

[2] = molecular target: T1, PTHrP receptor (Homo sapiens, UniProt Q03431); test: PTHrP receptor binding assay
T1 construct: 10-12 μg membrane protein; endogenous in cells; host or cells: WI38 human embryonic lung fibroblasts (inferred; the assay text only says membrane protein)
T1 sequence (Q03431 27-593): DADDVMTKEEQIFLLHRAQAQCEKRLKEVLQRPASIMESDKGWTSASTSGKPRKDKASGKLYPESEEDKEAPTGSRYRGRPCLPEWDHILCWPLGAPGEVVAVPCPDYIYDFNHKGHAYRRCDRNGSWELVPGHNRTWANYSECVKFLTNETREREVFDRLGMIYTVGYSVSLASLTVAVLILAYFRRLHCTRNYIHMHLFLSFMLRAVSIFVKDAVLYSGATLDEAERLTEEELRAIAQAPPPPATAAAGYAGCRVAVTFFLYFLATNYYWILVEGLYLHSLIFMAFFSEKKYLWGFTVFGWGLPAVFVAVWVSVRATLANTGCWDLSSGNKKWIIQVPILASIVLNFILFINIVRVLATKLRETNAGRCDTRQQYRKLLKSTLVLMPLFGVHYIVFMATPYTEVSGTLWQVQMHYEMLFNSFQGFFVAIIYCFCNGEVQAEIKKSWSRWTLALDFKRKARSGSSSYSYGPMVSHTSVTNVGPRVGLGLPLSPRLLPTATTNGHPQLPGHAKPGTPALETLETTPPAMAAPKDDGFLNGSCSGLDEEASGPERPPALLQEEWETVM
Procedure: The receptor binding assay was carried out as previously described (Torday and Rehan (2002) Am. J. Physiol. Lung Cell Mol. Physiol. 283: L130-L135; Torday and Rehan (2003) Cell Biochem Biophys 37: 235-246). The assay mixture, in a total volume of 0.1 ml, contained 50 mM Tris.HCl (pH 7.4), 2 mM dithiothreitol, 10 mM EDTA, 10 μg/ml each of protease inhibitors (leupeptin, pepstatin, antipain, and aprotinin), 0.5 mM phenylmethylsulfonyl fluoride, 10 mg/ml BSA, 5 mM MgCl2, […] [1251]-Tyr34-PTHrP-(1-34) (specific activity 1,064 Ci/mmol), 10-12 μg membrane protein, and 1×10-10 to 1×10^−6 M PTHrP-(1-34). Triplicate samples were incubated for 30 min at 30° C. Reactions were stopped by the addition of 0.1 ml of homogenization buffer containing 20 mg/ml of BSA and placed in ice-cold water for 30 min, followed by centrifugation at 15,000 g for 1 min. The supernatant was aspirated, and the pellet was counted for radioactive content with a gamma counter (model 1470; Wallace, Gaithersburg, Md.). Nonspecific binding was determined in the presence of 1 μM nonradioactive PTHrP-(1-34). Specific binding of [^125I]-Tyr34-PTHrP-(1-34) was calculated as total binding minus nonspecific binding and expressed as femtomoles per milligrams of protein. […] The effect of nicotine (1×10^−6 M) on PTHrP receptor binding was examined without and with the nACh receptor antagonists D-tubocurarine, α-bungarotoxin, or mecamylamine (1×10^−9 to 1×10^−6 M).

[3] = tested on: ATII cells; test: Phospholipid synthesis ([3H]choline incorporation into saturated phosphatidylcholine) by ATII cells after in utero nicotine; assay type: in vivo, Sprague-Dawley rat
Procedure: (§1) Incorporation of [methyl-3H]choline chloride (NEN Dupont) into saturated phosphatidylcholine was determined in monolayers of cultured explants and ATII cells. […] After incubation, explants and cells were washed three times with ice-cold PBS. The explants and the scraped cells were thoroughly homogenized, and the cellular lipids were extracted with chloroform-methanol (2:1) (Bligh and Dyer (1959) Can. J. Biochem. Physiol., 37: 911-917). The organic phase was dried under a stream of nitrogen at 60° C., resuspended in 0.5 ml of carbon tetrachloride containing 3.5 mg of osmium tetroxide, and left at room temperature for 15 min. The reaction mixture was redried under nitrogen and resuspended in 70 μl of chloroform-methanol (9:1, vol/vol). The lipid extracts were transferred to silica gel plates (Kodak, Rochester, N.Y.) and developed in a chloroform-methanolwater (65:25:4) solvent system. Pure dipalmitoyl phosphatidylcholine was used as the chromatographic standard. The developed plates were stained with bromothymol blue, blotted, and vacuum dried for 5 min at 90° C. Chromatogram spots corresponding to the migration of saturated phosphatidylcholine were scraped from the plates and counted by liquid scintillation spectrometry. The amounts of [methyl^3H]choline chloride incorporated into saturated phosphatidylcholine were expressed as disintegrations per minute per milligram of protein.

[4] = tested on: WI38 cells; test: Reversal of nicotine-induced LIF-to-MYF transdifferentiation in WI38 cells, Western analysis; details: GW9662 1×10^−5 M pretreatment; nicotine 1×10^−9 M 7 days
Procedure: The human embryonic cell line WI38 was obtained from the American Type Culture Collection (Rockville, Md.). Cells were grown in minimum essential medium (MEM) +10% fetal bovine serum at 37° C. in six-well plates, two well slides, and 60-mm and 100-mm culture dishes, as needed. […] Subsequently, the cells were treated with rosiglitazone (RGZ) (1×10^−5 M) (a PPARγ agonist), PTHrP (5×10^−7 M), or DBcAMP (1×10^−5 M) for 7 days, and the expression of PTHrP receptor, PPARγ, ADRP, calponin, and cSMA was determined by Western analysis and immunohistochemistry. Simultaneously, fibroblast function was characterized by measuring their capacity to take up triglycerides. Some experiments were performed in the presence of a specific PPARγ antagonist, GW9662. Medium containing fresh chemicals was added daily, and at the end of the experimental period the cells were processed as needed.
For Western blotting, cells were lysed using an extraction buffer [10 mM tris (hydroxymethyl) aminomethane (Tris, pH 7.5), 0.25 M sucrose, 1 mM EDTA, 5 mM benzamidine, 2 mM phenylmethylsulfonyl fluoride, and 10 (j.tg/ml each of pepstatin A, aprotinin, and leupeptin], and centrifuged at 140 g for 10 min (4° C.). Equal amounts of the protein (25 μg) from the supernatant were dissolved in electrophoresis sample buffer and were subjected to sodium dodecyl sulfate-polyacrylamide (4%-12% gradient) gel electrophoresis (SDS-PAGE) followed by electrophoretic transfer to a nitrocellulose memane. The nonspecific binding of antibody was blocked by washing with Tris-buffered saline (TBS) containing 0.1% Tween 20 (TBST) and 5% milk for 1 h. The blot was then subjected to two brief washes with TBST plus 0.5% Tween 20, incubated in TBST plus 0.1% Tween 20 and the specific primary antibodies (PPARγ 1:2000, Alexis Biochemicals, San Diego, Calif.; cSMA 1:50,000, Sigma, St. Louis, Mo.: ADRP 1:3000) overnight at 4° C. Blots were then washed in TBST plus 0.1% Tween 20 and then incubated for 1 h in secondary antibody, washed, and developed with a chemiluminescent substrate [enhanced chemiluminescence (ECL); Amersham, Arlington Heights, Ill.] following the manufacturer's protocol. The densities of the specific protein bands were quantified using a scanning densitometer (Eagle Eye II still video system, Stratagene, La Jolla, Calif.).

[5] = tested on: ATII cells; test: Phospholipid synthesis ([3H]choline incorporation) by ATII cells treated in vitro; assay type: cell-based, rat
Procedure: Isolated ATII cells were cultured in DMEM+10% FBS in 6- and 96-well plates, 100-mm dishes, and T-75 flasks, as needed, and maintained at 37° C. in a humidified incubator containing 5% CO2-95% air. At 80-90% confluence, cells were processed for cell proliferation, differentiation, and metabolic studies (see below).
as §1

[6] = tested on: fetal rat lung explants; test: In vitro ATII cell proliferation in lung explants (PCNA and SP-C labeling); assay type: cell-based
Procedure: Explants derived from three to five litters of rats were used for each experiment during the course of the studies. Lungs were harvested from fetal rats under sterile conditions. The lung tissue was chopped into −1-mm cubes and incubated in 0.5 ml of Waymouth's MB-252/1 medium containing penicillin (100 U/ml)-streptomycin (100 U/ml) and Fungizone (2.5 μg/ml) in six-well plates while rocking on an oscillating platform (3 cycles/min) in 5% CO2-95% air at 37° C. The explants were allowed to attach for 1-2 h.
Cultured ATII cells or explants were treated with nicotine under various experimental conditions (see below), and cell proliferation was determined by Cell Proliferation Assay (Promega) or dual PCNA and SP-C labeling, respectively (see above).

[7] = tested on: fetal ATII cells; test: Ex vivo ATII cell proliferation assay (tetrazolium dye) after in utero nicotine; parameters: species or system Sprague-Dawley rat
Procedure: Pathogen-free timed (embryonic day 0=day of mating) pregnant Sprague-Dawley rats (200-250 g body wt) were obtained from Charles River (Hollister, Calif.) at embryonic day 3 and allowed to acclimatize until embryonic day 6. […] The fetuses were extracted by cesarean section, and the lungs were snap frozen for later analysis or processed for ATII cell or fibroblast culture. […] Louis, Mo.; 0.25 mg/kg). All studies were approved by the Los Angeles Biomedical Research Institute Institutional Review Board and were conducted in accordance with the National Institutes of Health Guide for the Care and Use of Laboratory Animals. ATII cells were isolated using differential adherence in monolayer culture, as described previously (Battenburg et al. (1990) Biochim. Biophys. Acta 960: 441-456). Briefly, three to five […] used per preparation. The fetuses were delivered via cesarean section, and fetal lungs were placed in Hanks' balanced salt solution without calcium and magnesium. […] A Teflon stirring bar was used to further dissociate the lungs by mechanical disruption of the tissue during incubation in a 37° C. water bath. After the tissue was dispersed into a unicellular suspension, the cells were pelleted at 500 g for 10 min at room temperature in a 50-ml polystyrene centrifuge tube. […] The cell suspension was then added to 75-cm^2 (T-75) culture flasks for 30-60 min to allow for differential adherence of lung fibroblasts. The unattached cells were then transferred to another T-75 culture flask for an additional 60 min. After this second culture period, the medium and nonadherent cells were removed from the flask and diluted with 1 vol of culture medium. This diluted suspension was cultured overnight in a T-75 culture flask at 37° C. in a CO2 incubator to allow the ATII cells to adhere. […] According to the manufacturer's protocol, cell proliferation was determined by the tetrazolium dye assay, which is based on the conversion of a tetrazolium salt to a red formazan product by living cells (Cell Proliferation Assay, Promega).

[8] = tested on: ATII cells; test: Western analysis of CCT-α and SP-B in ATII cells after in utero nicotine; assay type: in vivo, Sprague-Dawley rat
Procedure: Pathogen-free timed (embryonic day 0=day of mating) pregnant Sprague-Dawley rats (200-250 g body wt) were obtained from Charles River (Hollister, Calif.) at embryonic day 3 and allowed to acclimatize until embryonic day 6. […] The fetuses were extracted by cesarean section, and the lungs were snap frozen for later analysis or processed for ATII cell or fibroblast culture. […] Louis, Mo.; 0.25 mg/kg). All studies were approved by the Los Angeles Biomedical Research Institute Institutional Review Board and were conducted in accordance with the National Institutes of Health Guide for the Care and Use of Laboratory Animals. Protein extraction and Western blot analysis for SP-B and choline phosphate cytidylyltransferase-α (CCT-α) were performed using standard methods. […] Chemicon) overnight at 4° C. The antibody for CCT-α (1:2,000 dilution) was a kind gift from Dr. […] (University of Iowa, Iowa City, Iowa). […] The density of the SP-B and CCT-α bands was quantified using a scanning densitometer (Eagle Eye, Stratagene).

[9] = tested on: ATII cells; test: Western analysis of CCT-α and SP-B in ATII cells treated in vitro; assay type: cell-based, rat
Procedure: Protein extraction and Western blot analysis for SP-B and choline phosphate cytidylyltransferase-α (CCT-α) were performed using standard methods. […] Equal amounts of the protein from the supernatant were dissolved in electrophoresis sample buffer and subjected to SDS-polyacrylamide (4-12% gradient) gel electrophoresis followed by electrophoretic transfer to a nitrocellulose membrane. The membrane was blocked with 5% milk in 1× Tris-buffered saline containing 0.1% Tween 20 for 1 h and then incubated with rabbit anti-human SP-B polyclonal antibody (1:1,000 dilution; Chemicon) overnight at 4° C. The antibody for CCT-α (1:2,000 dilution) was a kind gift from Dr. Mallampalli (University of Iowa, Iowa City, Iowa). Subsequently, the membrane was washed with 1× Tris-buffered saline+0.1% Tween 20 and incubated with a 1:3,000 dilution of anti-rabbit horseradish peroxidase-linked whole antibody immunoglobulin G (Amersham, Arlington Heights, Ill.) for 1 h at room temperature, washed again, and developed with a chemiluminescent substrate (ECL, Amersham) following the manufacturer's protocol. The density of the SP-B and CCT-α bands was quantified using a scanning densitometer (Eagle Eye, Stratagene).

[10] = tested on: fetal alveolar type II (ATII) cells; test: In vivo ATII cell proliferation assay (PCNA and SP-C double labeling) after in utero nicotine; parameters: species or system Sprague-Dawley rat
[11] = tested on: ATII cells; details: rat, in vivo

Molecule: COc1cc2c3cc1Oc1cc(ccc1O)C[C@@H]1c4c(cc(OC)c(O)c4Oc4ccc(cc4)C[C@@H]3N(C)CC2)CC[N+]1(C)C [D-tubocurarine]
- prevention of nicotine-induced decrease in triolein uptake [1]: completely prevented
- prevention of nicotine-induced decrease in PTHrP binding to its receptor [2]: prevented

Molecule: O=C(Nc1ccccc1)c1cc([N+](=O)[O-])ccc1Cl [GW9662]
- effect on nicotine-induced increase in phospholipid synthesis ([3]; concomitant PGJ2 alone or in combination with GW-9662, in utero): no effect
- block of molecular protection by PTHrP, DBcAMP and RGZ against nicotine-induced LIF-to-MYF transdifferentiation (PPARγ, calponin) [4]: completely blocked
- effect on nicotine-induced increase in phospholipid synthesis ([5]; concomitant PGJ2 alone or in combination with GW-9662, in vitro): no effect
- block of the PGJ2 effect in lung explants ([6]; nicotine 24 h + PGJ2): blocked
- block of the PGJ2 effect ([7]; nicotine + PGJ2): blocked
- effect on nicotine-induced increase (CCT-α experiment) ([8]; PGJ2 alone or in combination with GW-9662, in vivo): no effect
- effect on nicotine-induced increase in SP-B protein expression ([8]; concomitant treatment, in utero): no effect
- effect on nicotine-induced increase (CCT-α experiment) ([9]; PGJ2 alone or in combination with GW-9662, in vitro): no effect
- effect on nicotine-induced increase in SP-B expression ([9]; in vitro): unaffected
- block of the PGJ2 effect on nicotine-induced increase in ATII cell proliferation ([10]; GW-9662 0.25 mg/kg pretreatment, nicotine + PGJ2): almost completely blocked
- block of the PGJ2 effect on nicotine-induced increase in ATII cell proliferation ([10]; in utero nicotine + PGJ2): 70%

Molecule: CCCCC[C@H](O)/C=C/[C@H]1C(=O)C=C[C@@H]1C/C=C\CCCC(=O)O [PGJ2, prostaglandin J2]
- effect on nicotine-induced increase in phospholipid synthesis ([3]; rat, in vivo): no effect
- effect on nicotine-induced increase in phospholipid synthesis [5]: no effect
- block of nicotine-induced increase in ATII cell proliferation in lung explants [6]: blocked
- block of nicotine-induced alterations in ribose synthesis [11]: completely blocked
- prevention of nicotine-induced changes in de novo palmitate synthesis and acetyl-CoA labeling [11]: completely prevented
- block of nicotine-induced increase in ATII proliferation ([7]; rat, in vivo): almost completely blocked
- effect on nicotine-induced increase (CCT-α experiment) ([8]; rat, in vivo): no effect
- effect on nicotine-induced increase in SP-B protein expression ([8]; rat, in vivo): no effect
- effect on nicotine-induced increase (CCT-α experiment) [9]: no effect
- effect on nicotine-induced increase in SP-B expression [9]: unaffected
- block of nicotine-induced increase in ATII cell proliferation ([10]; rat, in vivo): completely blocked

Molecule: CNC1(C)C2CCC(C2)C1(C)C (centres unmarked) [mecamylamine]
- prevention of nicotine-induced decrease in triolein uptake ([1]; nACh receptor antagonist 1×10^−9 or 1×10^−6 M): not
- prevention of nicotine-induced decrease in PTHrP binding to its receptor ([2]; pretreatment with nACh receptor antagonist, nicotine 1×10^−6 M): not

Molecule: PTHrP-(7-34) amide
- binding of radioactive ligand [125I]-Tyr34-PTHrP-(1-34) ([2]; 1 μM): inhibited

Molecule: α-bungarotoxin
- prevention of nicotine-induced decrease in triolein uptake [1]: completely prevented
- prevention of nicotine-induced decrease in PTHrP binding to its receptor [2]: prevented
